Results on 1 compound are retold here after patent US11649440B2, “Thermostabilized Amadoriases and uses thereof” (FONDAZIONE ISTITUTO ITALIANO DI TECNOLOGIA, priority 2017, dated 2023).

As a reminder, the kcat is the maximal rate divided by the concentration of active sites. The term kcat/Km denotes the second-order rate constant that governs catalysis at low substrate concentration.

Assay [1] concerns the target T1, Aspergillus fumigatus Amadoriase I variant SS03 (Ser67Cys + Pro121Cys), SEQ ID NO: 4 (Aspergillus fumigatus, UniProt O42629, P121C/S67C).
T1 construct: E. coli codon-optimised gene in bacterial (Novagen, pET-type) vector
The assay is described as follows: Steady-state kinetics of Amadoriase variant SS03 towards fructosyl-lysine (glucosone formation at 322 nm). Format: biochemical. The settings on record: apparent, fructosyl-lysine 0.05 mM to 2 mM, 10 mM Tris HCl pH 7.4, 20 mM o-Phenylenediamine, three independent experiments. Here is the method: (§1) Enzymatic activity was followed by a continuous assay that detects glucosone formation over time from fructosyl-lysine at 322 nm. The 200 μl reaction mixture contained 10 mM Tris HCl pH 7.4, 20 mM o-Phenylenediamine, 2 mM fructosyl-lysine. After 1 minute of pre-incubation, the reaction was started adding 4.5 μg of enzyme, and the increase in absorbance at 322 nm (glucosone ε322=149.25 M^−1cm^−1) was monitored in a Spark10M (Tecan).
(§2) Apparent steady-state parameters for the enzymes over its natural substrate were determined by means of the assay described above, with fructosyl-lysine concentrations varied from 0.05 mM to 2 mM. Data points were obtained from three independent experiments. Kinetic parameters were calculated using a non-linear least-square fit of the data, and fitted with Eq. 1 (the Michaelis-Menten equation for hyperbolic substrate kinetics) using Hyperbola fit function of GraphPad Prism version 5.00 for Windows, GraphPad Software, La Jolla Calif. USA.
(§3) [formula] in which v, Vmax, S, and Km represent the steady state reaction rate, maximum reaction rate, substrate concentration, and Michaelis-Menten constant for the substrate, respectively.

The target in assay [2] is T2, Aspergillus fumigatus Amadoriase I variant SS17 (Asp295Cys + Lys303Cys), SEQ ID NO: 6 (Aspergillus fumigatus, UniProt O42629, D295C/K303C).
T2 construct: E. coli codon-optimised gene in bacterial (Novagen, pET-type) vector
The assay is described as follows: Steady-state kinetics of Amadoriase variant SS17 towards fructosyl-lysine (glucosone formation at 322 nm). Format: biochemical. The settings on record: apparent, fructosyl-lysine 0.05 mM to 2 mM, 10 mM Tris HCl pH 7.4, 20 mM o-Phenylenediamine, three independent experiments. Here is the method:
as §1, §2, §3

As for `N[C@@H](CCCCNCC(=O)[C@@H](O)[C@H](O)[C@H](O)CO)C(=O)O` [fructosyl-lysine], in assay [1], the kcat was 21.90 ± 2.73 s⁻¹ and the kcat/Km turned out to be 64170 ± 25500 M⁻¹ s⁻¹. In assay [2], the kcat is 22.91 ± 2.12 s⁻¹ and the kcat/Km stood at 33340 ± 10160 M⁻¹ s⁻¹.
